This note sets out measurements from patent US20200239530A1, “COMPOUNDS AND METHODS OF MODULATING PROTEIN DEGRADATION” (Vividion Therapeutics, Inc., priority 2017, published 2020).

Experiment [1] concerns the target T1, ABCD3 ATP-binding cassette sub-family D member 3 (Homo sapiens, UniProt P28288).
T1 construct: Cells were resuspended in cold PBS on ice and sonicated with a probe sonicator to achieve lysis; endogenous in cells
Kind of experiment: Cysteine liganding, probe competition. The method, then:
(§1) Cells were resuspended in cold PBS on ice and sonicated with a probe sonicator to achieve lysis. 200 μL of lysate containing 5 mg/ml proteome was treated with 2 μL of 100× compound stock in a 2-mL deep-well plate. The treated lysate was subsequently incubate at 25° C. for 1 hr with shaking at 600 rpm. The treated lysate was further incubated with 2 μL of 10 mM desthiobiotin iodoacetamide probe at 25° C. for 1 hr with shaking at 600 rpm. Next, the lysate was further treat with 20 μL of solution of PBS containing 11 mM MgSO4 and 2.5% Turbonuclease stock and incubated at 25° C. for 20 minutes with shaking at 600 rpm. 1.7 mL ice-cold acetone was added to each well and incubated at −20° C. for 2 hr, followed by max speed (4200 rpm) spin for 45 min. Acetone was then decanted and the plates were blotted to remove acetone. The plates were then dried in open air for 20 minutes. After drying, the plates were then covered with foil seal and stored at −80° C. overnight.
The next day, samples were re-suspended in 90 μL of solution of 9M urea, 50 mM ammonium bicarbonate and 10 mM DTT by incubating at 65C for 20 min with shaking at 1500 rpm. Next, samples were cooled to 37° C. and then 10 μL of 500 mM iodoacetamide solution (92.48 mg/ml) was added. The samples were then incubated at 37° C. for 30 min with shaking at 600 rpm. […]

For experiment [2], the target named is T2, FBXO11 F-box only protein 11 (Homo sapiens, UniProt Q86XK2).
T2 construct: Cells were resuspended in cold PBS on ice and sonicated with a probe sonicator to achieve lysis; endogenous in cells
T2 sequence (Q86XK2 1-927): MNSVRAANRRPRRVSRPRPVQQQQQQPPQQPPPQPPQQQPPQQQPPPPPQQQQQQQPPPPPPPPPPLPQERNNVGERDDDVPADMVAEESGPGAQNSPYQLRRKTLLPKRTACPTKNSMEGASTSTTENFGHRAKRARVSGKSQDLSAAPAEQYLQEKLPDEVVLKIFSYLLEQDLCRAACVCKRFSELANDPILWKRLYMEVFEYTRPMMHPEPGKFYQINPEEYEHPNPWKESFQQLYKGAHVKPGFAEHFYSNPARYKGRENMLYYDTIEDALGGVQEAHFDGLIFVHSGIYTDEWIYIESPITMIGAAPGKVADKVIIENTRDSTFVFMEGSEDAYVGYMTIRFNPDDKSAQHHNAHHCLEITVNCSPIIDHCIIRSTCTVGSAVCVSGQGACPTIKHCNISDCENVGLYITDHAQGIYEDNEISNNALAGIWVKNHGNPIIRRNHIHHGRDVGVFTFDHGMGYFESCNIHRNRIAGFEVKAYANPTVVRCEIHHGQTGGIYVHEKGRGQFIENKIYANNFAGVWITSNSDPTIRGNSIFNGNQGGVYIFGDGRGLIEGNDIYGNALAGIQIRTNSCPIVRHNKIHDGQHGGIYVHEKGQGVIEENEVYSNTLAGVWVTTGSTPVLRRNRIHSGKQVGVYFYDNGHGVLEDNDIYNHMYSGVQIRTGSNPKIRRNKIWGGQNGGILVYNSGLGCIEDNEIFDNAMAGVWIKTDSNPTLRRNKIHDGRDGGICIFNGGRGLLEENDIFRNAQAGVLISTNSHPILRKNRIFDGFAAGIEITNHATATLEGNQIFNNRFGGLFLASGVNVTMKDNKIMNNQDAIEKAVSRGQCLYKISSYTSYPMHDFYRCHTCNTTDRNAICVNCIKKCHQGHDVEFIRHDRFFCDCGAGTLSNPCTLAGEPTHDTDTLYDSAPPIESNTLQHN
Kind of experiment: Cysteine liganding, probe competition. The experiment is classed as binding. Put shortly:
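Probe competition in native proteome: 5 mg/ml lysate, compound 1 hr 25° C, then desthiobiotin iodoacetamide (10 mM stock) 1 hr 25° C; acetone ppt, urea/DTT reduction, iodoacetamide alkylation, trypsin, streptavidin pull-down.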

A further experiment addresses T3, Q8ND25 (Homo sapiens, UniProt Q8ND25).
T3 construct: 200 μL of lysate containing 5 mg/ml proteome was treated with 2 μL of 100× compound stock; endogenous in cells
Nature of the experiment: Cysteine liganding, probe competition (Table 2B). To be noted: one line per cysteine site. It is filed as binding. An excerpt: (§2) The following 96-well sample prep protocol was used for sample preparation.

Another experiment deals with T4, Q8NHG8 (Homo sapiens, UniProt Q8NHG8).
T4 construct: 200 μL of lysate containing 5 mg/ml proteome was treated with 2 μL of 100× compound stock; endogenous in cells
Nature of the experiment: Cysteine liganding, probe competition (Table 2B). The experiment is classed as binding. Conditions: one line per cysteine site.
Description: as §2

The target of experiment [3] is cysteine residue illustrated in Table 1A or Table 2A (Homo sapiens, UniProt Q13616). Kind of experiment: Competitive cysteine profiling of cell lysate with desthiobiotin iodoacetamide probe (96-well sample prep). Further details: endogenous in cells. Conditions: UniProt Q13616; 100 uM. It is filed as binding. The method, then: In some embodiments, the solution sample (e.g., cell sample, cell lysate sample, or comprising isolated proteins) is incubated with a compound of Formula (I) for analysis of protein-probe interactions. In some instances, the solution sample (e.g., cell sample, cell lysate sample, or comprising isolated proteins) is further incubated in the presence of an additional compound probe prior to addition of the compound of Formula (I). […] In such instances, the solution sample is incubated with a probe and a ligand for competitive protein profiling analysis.
as §2
as §1, with “Acetone was then decanted and the plates were blotted to remove acetone. The plates were then dried in open air for 20 minutes. After drying, the plates were then covered with foil seal and stored at −80° C. overnight.” left out

The mark [4] stands for this setting: 500 uM, read-out: KB02_500 uM_percent_inhibition.
The mark [5] stands for this setting: 100 uM, read-out: KB05_100 uM_percent_inhibition.

T1 sequence (P28288 whole entry): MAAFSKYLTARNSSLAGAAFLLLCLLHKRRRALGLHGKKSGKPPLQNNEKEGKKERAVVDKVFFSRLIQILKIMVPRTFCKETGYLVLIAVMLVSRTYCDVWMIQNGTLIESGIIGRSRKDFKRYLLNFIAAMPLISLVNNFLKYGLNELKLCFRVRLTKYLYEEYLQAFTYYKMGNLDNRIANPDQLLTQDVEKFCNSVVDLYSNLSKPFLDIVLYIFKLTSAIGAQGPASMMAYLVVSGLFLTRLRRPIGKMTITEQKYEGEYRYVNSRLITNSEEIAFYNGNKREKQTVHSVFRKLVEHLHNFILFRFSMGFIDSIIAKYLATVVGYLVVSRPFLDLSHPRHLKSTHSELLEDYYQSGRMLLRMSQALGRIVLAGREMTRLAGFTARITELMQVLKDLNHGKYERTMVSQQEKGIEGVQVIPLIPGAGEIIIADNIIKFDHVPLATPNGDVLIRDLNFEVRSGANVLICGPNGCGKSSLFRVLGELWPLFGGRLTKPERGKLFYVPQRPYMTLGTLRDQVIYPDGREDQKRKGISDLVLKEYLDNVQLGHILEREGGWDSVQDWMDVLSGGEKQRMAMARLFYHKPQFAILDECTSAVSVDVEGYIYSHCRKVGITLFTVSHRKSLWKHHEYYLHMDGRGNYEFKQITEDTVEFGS
T4 sequence (Q8NHG8 whole entry): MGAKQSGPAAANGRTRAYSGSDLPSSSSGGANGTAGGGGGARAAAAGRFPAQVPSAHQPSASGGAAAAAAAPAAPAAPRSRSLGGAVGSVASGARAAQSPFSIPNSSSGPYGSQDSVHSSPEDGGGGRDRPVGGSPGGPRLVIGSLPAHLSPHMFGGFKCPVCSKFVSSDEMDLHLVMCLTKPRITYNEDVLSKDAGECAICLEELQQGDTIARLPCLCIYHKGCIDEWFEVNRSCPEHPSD
Sequence of cysteine residue illustrated in Table 1A or Table 2A (Q13616 whole entry): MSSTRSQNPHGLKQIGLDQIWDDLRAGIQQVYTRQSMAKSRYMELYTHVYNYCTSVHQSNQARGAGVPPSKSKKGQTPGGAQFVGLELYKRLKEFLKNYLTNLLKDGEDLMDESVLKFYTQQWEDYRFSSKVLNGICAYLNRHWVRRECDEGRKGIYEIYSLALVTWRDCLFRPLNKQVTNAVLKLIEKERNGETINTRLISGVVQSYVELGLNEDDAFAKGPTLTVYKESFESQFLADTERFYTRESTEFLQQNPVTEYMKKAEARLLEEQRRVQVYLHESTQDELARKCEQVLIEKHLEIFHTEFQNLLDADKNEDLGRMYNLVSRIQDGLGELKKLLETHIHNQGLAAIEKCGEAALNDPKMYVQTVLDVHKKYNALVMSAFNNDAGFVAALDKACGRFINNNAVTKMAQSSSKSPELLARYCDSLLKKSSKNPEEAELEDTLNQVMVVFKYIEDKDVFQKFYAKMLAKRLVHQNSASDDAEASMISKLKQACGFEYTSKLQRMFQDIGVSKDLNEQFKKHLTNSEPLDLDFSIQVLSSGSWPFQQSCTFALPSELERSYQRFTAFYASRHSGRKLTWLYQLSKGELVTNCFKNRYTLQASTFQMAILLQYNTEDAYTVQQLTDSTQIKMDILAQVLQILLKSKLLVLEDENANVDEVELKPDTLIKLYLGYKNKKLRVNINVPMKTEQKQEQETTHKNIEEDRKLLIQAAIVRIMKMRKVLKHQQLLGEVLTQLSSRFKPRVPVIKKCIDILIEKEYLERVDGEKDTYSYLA
T3 sequence (Q8ND25 whole entry): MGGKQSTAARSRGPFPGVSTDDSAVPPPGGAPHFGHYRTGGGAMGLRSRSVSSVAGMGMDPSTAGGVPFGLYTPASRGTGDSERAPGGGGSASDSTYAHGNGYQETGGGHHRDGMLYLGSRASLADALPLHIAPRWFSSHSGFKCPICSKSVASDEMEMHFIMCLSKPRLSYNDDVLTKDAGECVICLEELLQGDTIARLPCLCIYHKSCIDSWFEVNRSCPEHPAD

In the case of `COc1ccc2c(c1)CCCN2C(=O)CCl` [KB02], the Liganded result in experiment [1] (ABCD3 Res# 472, uniprot P28288) was “YES”; in experiment [1] (ABCD3 Res# 477, uniprot P28288), “YES”; in experiment [2] (FBXO11 Res# 581, uniprot Q86XK2), “YES”. The inhibition at 500 µM on Q8ND25 (setting [4]) was 42%; on Q8NHG8 (setting [4]), 35%.
As for `C=CC(=O)N(c1ccccc1)c1ccc(Br)cc1` [KB05], the inhibition at 100 µM on Q8ND25 (setting [5]) and on Q8NHG8 (setting [5]) was 9% in each case. Further, the “KB05_100 uM_percent_inhibition” value in experiment [3] is recorded as 4%.
On to `O=C(CCl)Nc1cc(C(F)(F)F)cc(C(F)(F)F)c1` [KBO3], for which, in experiment [2] (uniprot Q86XK2), the “100 Max” value was −13.9, the 100 ave was −20.1, the “500 Max” value is recorded as 28.6 and the 500 ave came out at 20.3. Moreover, the “KB03_100 uM_percent_inhibition” value in experiment [3] is given as 31%.
